According to EP4729529A1, “PREPARATION OF PEPTIDE INHIBITOR OF INTERLEUKIN-23 RECEPTOR AND USE THEREOF” (Xizang Haisco Pharmaceutical Co., Ltd., priority 2023, dated 2024):
Positions of bridges follow the written chain, without caps; N, C: chain ends. Non-standard residues stand in square brackets, D forms with d. Residues, ends and D or L forms follow the SMILES beside them. Phe(4-OC2H4NH2,2,3-(CH2)3) = NCCOc1ccc(C[C@H](N)C(=O)O)c2c1CCC2; Trp(7-cPr) = N[C@@H](Cc1c[nH]c2c(C3CC3)cccc12)C(=O)O; 2Nal = N[C@@H](Cc1ccc2ccccc2c1)C(=O)O; Thp(SO2) = NC1(C(=O)O)CCS(=O)(=O)CC1; 3Pal = N[C@@H](Cc1cccnc1)C(=O)O; Pen = CC(C)(S)[C@H](N)C(=O)O; Sar = CNCC(=O)O

Key:
IL-23α/IL-12β and IL-23R = target: T1, IL-23α/IL-12β and IL-23R (Homo sapiens, UniProt Q5VWK5); experiment: IL-23α/IL-12β and IL-23R binding assay (TR-FRET/HTRF); conditions: inhibition of the binding of IL-23α/IL-12β to IL-23R, TR-FRET; both proteins 0.3 nM
T1 construct: purchased ACRO ILR-H82F3 (IL-23R); ILB-H52W5 (IL-23α/IL-12β)
T1 sequence (Q5VWK5 24-353 limits assumed): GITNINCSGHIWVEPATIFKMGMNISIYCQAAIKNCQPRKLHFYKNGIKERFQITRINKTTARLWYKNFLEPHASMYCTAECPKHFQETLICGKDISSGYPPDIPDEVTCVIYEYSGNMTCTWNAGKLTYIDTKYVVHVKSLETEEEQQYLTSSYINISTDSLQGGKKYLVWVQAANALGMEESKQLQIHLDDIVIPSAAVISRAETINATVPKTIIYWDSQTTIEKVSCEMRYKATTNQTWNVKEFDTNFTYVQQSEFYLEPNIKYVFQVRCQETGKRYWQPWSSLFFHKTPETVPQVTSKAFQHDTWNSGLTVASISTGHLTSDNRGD
Procedure, shortened: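 TR-FRET with IL-23α/IL-12β and IL-23R each at 0.3 nM in PPI buffer; compound preincubated with IL-23α/IL-12β 60 min at 25°C, then IL-23R and Tb/d2 detection reagents added for 60 min. HTRF 665/620 ratio; IC50 by nonlinear regression.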

IL-23R = target: T2, IL-23R (Homo sapiens, UniProt Q5VWK5); experiment: IL-23R reporter gene assay (HEK-blue IL23 reporter gene cell line, rhIL23 stimulation); type: cell-based; conditions: Inhibition of IL-23R, rhIL23 1 ng/mL, 24 hours
T2 construct: host or cells: HEK-blue IL23 reporter gene cell line
T2 sequence (Q5VWK5 24-629): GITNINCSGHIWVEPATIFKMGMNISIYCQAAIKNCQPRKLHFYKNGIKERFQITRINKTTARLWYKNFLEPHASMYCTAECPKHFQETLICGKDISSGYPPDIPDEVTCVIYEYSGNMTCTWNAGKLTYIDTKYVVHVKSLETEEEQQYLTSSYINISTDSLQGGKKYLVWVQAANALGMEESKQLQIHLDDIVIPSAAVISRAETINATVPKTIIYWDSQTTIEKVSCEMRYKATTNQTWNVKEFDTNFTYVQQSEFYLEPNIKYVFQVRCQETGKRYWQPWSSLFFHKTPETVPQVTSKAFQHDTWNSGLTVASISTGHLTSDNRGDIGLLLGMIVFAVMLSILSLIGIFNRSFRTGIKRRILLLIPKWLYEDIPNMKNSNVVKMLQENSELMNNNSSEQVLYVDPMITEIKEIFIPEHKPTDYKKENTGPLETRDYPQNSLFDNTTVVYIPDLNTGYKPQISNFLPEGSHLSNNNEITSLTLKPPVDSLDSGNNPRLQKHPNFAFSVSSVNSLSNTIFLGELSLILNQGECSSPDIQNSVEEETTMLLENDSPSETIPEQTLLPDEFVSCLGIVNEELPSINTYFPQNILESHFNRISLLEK
Description: 2. IL-23R reporter gene assay
The purpose of this assay was to assess the ability of compounds to inhibit the binding of IL23p19 to IL23R in a reporter gene system. The HEK-blue IL23 reporter gene cell line (Invivogen, hkb-il23) was cultured in DMEM + 10% FBS + 100 ug/mL Normocin medium. When the cell density reached 80%-90%, 5000 cells/well were plated into a 384-well plate, and the plate was incubated overnight at 37°C with 5% CO2. Then, the compound stock solution was diluted in DMSO, and 40 nL of the dilution was transferred into the 384-well culture plate by Echo. The plate was incubated at 37°C with 5% CO2 for 0.5 hours. 40 nL/well of rhIL23 (R&D, 1290-IL) was added to the 384-well cell culture plate at a final concentration of 1 ng/mL, and the plate was incubated at 37°C with 5% CO2 for 24 hours. 18 µL of Quanti-Blue™ solution was added to a new 384-well plate. 2 µL/well of cell culture supernatant was transferred into the 384-well plate prepared in Step 6, and the plate was incubated at 37°C with 5% CO2 for 1 hour. Absorbance values at […] were read on BMG. The binding ability of the compounds was assessed using the following formula, and IC50 values were obtained by fitting with Graphpad.
(§1) Calculation formula of inhibition rate: [formula] • where Data negative: mean of DMSO control group; and • Data positive: mean of non-IL23-stimulated group
The calculation formula of IC50 was as follows: Y = Bottom + (Top−Bottom)/(1+10^(∧)((LogIC50−X)*HillSlope)) [formula] • where X: concentration of compound; and • Y: inhibition rate of compound Table 2. Inhibition of IL-23R by test compounds

[1] = target: (Homo sapiens, UniProt Q5VWK5); experiment: IL-23-stimulated pSTAT3 detection assay in PBMCs (ELISA); type: cell-based; conditions: rhIL23 stimulation 30 minutes, read-out: pSTAT3 inhibition/IC50
Description: 3. IL-23-stimulated pSTAT3 detection assay in PBMCs
Cryopreserved human PBMCs were thawed, and seeded onto a plate previously covered with an anti-CD3 antibody at 1 × 10^6 cells/well. Then, an anti-CD28 antibody was added to the plate, and the cells were incubated at 37°C with 5% CO2 for 5 days. On Day 5, the cells were seeded onto a 96-well plate at a density of 100K cells/well after 4 hours of stimulation by FBS starvation. The diluted Compound was transferred into the 96-well cell culture plate, and the plate was incubated at 37°C with 5% CO2 for 1 hour. rhIL23 (R&D, 1290-IL) was added to the cell culture plate, and the plate was incubated at 37°C with 5% CO2 for 30 minutes. The cells in the wells were lysed on ice with a lysis buffer containing 1× PHOSstop solution for 30 minutes, and the plate was centrifuged at 1000 rpm for 1 minute. Then, the supernatant was transferred into a 96-well ELISA plate, and pSTAT3 ELISA assay was performed according to the instructions of the kit (CST, 7300CA). Absorbance values at […] were read on PHERAstar FSX (BMG LRBTECH). The inhibition rate of the compounds was assessed using the following formula, and IC50 values were obtained by fitting with Graphpad.
as §1
The calculation formula of IC50 was as follows: Y = Bottom + (Top−Bottom)/(1+10^(∧)((LogIC50−X)*HillSlope)) [formula] • where X: concentration of compound; and • Y: inhibition rate of compound. Table 3. pSTAT3 inhibition

[2] = Pharmacokinetic test in mice (intravenous and intragastric, plasma LC-MS/MS); type: in vivo; conditions: male, mouse, Balb/c mice
Description: 4. Pharmacokinetic test in mice
4.1. Experimental animals: Male Balb/c mice (20-25 g, 18 mice/compound) were purchased from Chengdu Dossy Experimental Animals Co., Ltd.
4.2. Experimental design: On the day of the experiment, the Balb/c mice were randomly grouped by body weight. The animals were fasted with water available for 12-14 h one day before the administration, and were fed 4 h after the administration. Table 4. Administration information
Before and after administration, 0.06 mL of blood was taken from the orbit under isoflurane anaesthesia, and placed in an EDTAK2 centrifuge tube. The tube was centrifuged at 5000 rpm at 4°C for 10 min, and plasma was collected. The blood collection time points for the intravenous group and intragastric group were both 0 min, 5 min, 15 min, 30 min, 1 h, 2 h, 4 h, 6 h, 8 h, and 24 h. Before analysis and detection, all samples were stored at -80°C, and the samples were quantitatively analysed by LC-MS/MS. Table 5. Pharmacokinetic parameters of test compounds in mouse plasma

Chain of (Homo sapiens, UniProt Q5VWK5) (Q9NPF7 20-189 partner, other chains not shown): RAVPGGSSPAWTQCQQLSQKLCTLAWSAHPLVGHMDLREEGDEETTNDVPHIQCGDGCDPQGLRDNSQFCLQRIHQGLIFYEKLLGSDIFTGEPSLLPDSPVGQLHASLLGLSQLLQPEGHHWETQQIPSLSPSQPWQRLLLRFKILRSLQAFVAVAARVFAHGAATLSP
Chain of (Homo sapiens, UniProt Q5VWK5) (P29460 23-328 partner, other chains not shown): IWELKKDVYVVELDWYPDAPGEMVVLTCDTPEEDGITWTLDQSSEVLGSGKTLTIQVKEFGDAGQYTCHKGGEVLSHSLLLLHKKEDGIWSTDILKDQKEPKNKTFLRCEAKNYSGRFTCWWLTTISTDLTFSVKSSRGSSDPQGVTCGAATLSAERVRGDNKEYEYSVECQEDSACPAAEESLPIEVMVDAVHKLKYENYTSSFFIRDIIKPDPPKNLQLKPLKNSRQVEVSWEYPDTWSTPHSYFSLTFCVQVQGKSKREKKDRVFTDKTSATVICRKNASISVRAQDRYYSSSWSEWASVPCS

CC(=O)N[C@@H]1C(=O)N[C@@H](Cc2c[nH]cn2)C(=O)N[C@@H]([C@@H](C)O)C(=O)N[C@@H](Cc2c[nH]c3c(C4CC4)cccc23)C(=O)N[C@@H](CCC(N)=O)C(=O)N[C@H](C(=O)N[C@@H](Cc2ccc(OCCN)c3c2CCC3)C(=O)N[C@@H](Cc2ccc3ccccc3c2)C(=O)NC2(C(=O)N[C@@H](CCC(=O)O)C(=O)N[C@@H](CC(N)=O)C(=O)N[C@@H](Cc3cccnc3)C(=O)N(C)CC(N)=O)CCS(=O)(=O)CC2)C(C)(C)SSC1(C)C [Compound 16] (Ac-[Pen]HT[Trp(7-cPr)]Q[Pen][Phe(4-OC2H4NH2,2,3-(CH2)3)][2Nal][Thp(SO2)]EN[3Pal][Sar]-NH2; disulfide 1-6)
IC50 (IL-23α/IL-12β and IL-23R): 0.063 nM | IC50 (IL-23R): 6.07 nM | IC50 [1]: 6.9 pM | AUC(0-t) ([2]; iv, i.v. (1 mg/kg)): 5440 ± 220 ng·h/mL | clearance ([2]; iv, i.v. (1 mg/kg)): 3.06 ± 0.13 mL/min/kg | Vd ([2]; iv, i.v. (1 mg/kg), read-out: Vdss): 0.378 ± 0.022 L/kg | AUC(0-t) ([2]; po, i.g. (10 mg/kg)): 143 ± 13 ng·h/mL | bioavailability ([2]; po, i.g. (10 mg/kg)): 0.263 ± 0.023%
